Patent publication US20240148821A1, “PHARMACEUTICAL USE OF CYCLIC PEPTIDE COMPOUND” (CHUGAI SEIYAKU KABUSHIKI KAISHA, priority 2021, published 2024)
Numbered stars: 1 amine (or outer) side, 2 acyl side, 3 side chain; on linkers, the order of the positions; unused ones are H or OH. Bridge positions count the residues as written; N and C are the ends. Square brackets hold non-standard residues; d marks the D form. Peptide text beside a SMILES is read from it. * marks the point of attachment. hPhe(3-Cl-4-CF3) = N[C@@H](CCc1ccc(C(F)(F)F)c(Cl)c1)C(=O)O; X36 = O=C([C@H](Cc1cc(F)cc(Cl)c1)N[*:1])[*:2]; NMePhe(4-Cl) = CN[C@@H](Cc1ccc(Cl)cc1)C(=O)O; NMeCha = CN[C@@H](CC1CCCCC1)C(=O)O; NMeGly(cPr) = CN[C@H](C(=O)O)C1CC1; NMeCba = CN[C@@H](CC1CCC1)C(=O)O; NMeChg = CN[C@H](C(=O)O)C1CCCCC1; N(CH2CH2)2CF2 = FC1(F)CCN(*)CC1; NMeD = CN[C@@H](CC(=O)O)C(=O)O; NMeL = CN[C@@H](CC(C)C)C(=O)O; NMeV = CN[C@H](C(=O)O)C(C)C; Trifluoroethyl = FC(F)(F)C*; d(β3hA) = C[C@@H](N)CC(=O)O; NMeS = CN[C@@H](CO)C(=O)O; Pip = O=C(O)[C@@H]1CCCCN1; NMeAib = CNC(C)(C)C(=O)O; Nle = CCCC[C@H](N)C(=O)O; Piperidide = C1CCN(*)CC1; Ac5c = NC1(C(=O)O)CCCC1; NcPrGly = O=C(O)CNC1CC1; Cyclobutyl = C1CC(*)C1; NEtG = CCNCC(=O)O; Sar = CNCC(=O)O

System: Human pancreatic cancer cell line AsPC-1 (G12D mutation Kras)
Assay: AsPC-1 cell growth inhibition (AsPC-1 CGI)
Type: cell-based
Details: read-out: AsPC-1 cell growth inhibition, 50% growth inhibitory concentration (IC50 value); 96 hours, CellTiter-Glo, values classified in ranges
Method: Test compounds were serially dilated with dimethyl sulfoxide, and 200 nL was then dispensed to a U-bottom 96-well plate using Labcyte Echo. […] The cell suspension was dispensed to a. plate containing a test compound at 100 μL per well and incubated at 37° C. in a 5% carbon dioxide gas incubator. 96 hours later, 80 μL of CellTiter-Glo (Promega) was added to each well and fluorescence was measured.

Row | Structure (SMILES) | IC50 [nM]
1 | CC[C@H](C)[C@@H]1NC(=O)[C@H](CC(C)C)N(C)C(=O)C[C@@H](C(=O)N2CCCCC2)N(C)C(=O)[C@H](C2CC2)N(C)C(=O)C2(CCCC2)NC(=O)[C@@H]2CCCN2C(=O)[C@H](CCc2ccc(C(F)(F)F)c(Cl)c2)NC(=O)CN(C)C(=O)[C@H](CC2CCCCC2)N(C)C(=O)CN(C)C(=O)CN(C)C1=O [Compound 197] ([NMeL]I[Sar][Sar][NMeCha][Sar][hPhe(3-Cl-4-CF3)]P[Ac5c][NMeGly(cPr)][NMeD]-Piperidide; lactam N-11) | > 500
2 | CCCC[C@@H]1NC(=O)[C@H](Cc2cc(F)cc(Cl)c2)NC(=O)CN(C)C(=O)[C@H](Cc2ccc(Cl)cc2)N(C)C(=O)CN(C)C(=O)CN(C)C(=O)[C@H]([C@@H](C)CC)NC(=O)[C@H](CC(C)C)N(C)C(=O)C[C@@H](C(=O)N2CCCCC2)N(C)C(=O)[C@H](CC(C)C)NC(=O)C(C)(C)N(C)C1=O [Compound 202] ([NMeL]I[Sar][Sar][NMePhe(4-Cl)][Sar][X36][Nle][NMeAib]L[NMeD]-Piperidide; lactam N-11) | > 500
3 | CC[C@H](C)[C@@H]1NC(=O)[C@H](CC(C)C)N(C)C(=O)C[C@@H](C)NC(=O)[C@H](C(C)C)N(C)C(=O)C2(CCCC2)NC(=O)[C@@H]2CCCN2C(=O)[C@H](CCc2ccc(C(F)(F)F)c(Cl)c2)NC(=O)CN(C2CC2)C(=O)[C@H](CC2CCCCC2)N(C)C(=O)CN(C)C(=O)CN(C)C1=O [Compound 204] (cyclo([Ac5c][NMeV][d(β3hA)][NMeL]I[Sar][Sar][NMeCha][NcPrGly][hPhe(3-Cl-4-CF3)]P)) | > 500
4 | CC[C@H](C)[C@@H]1NC(=O)[C@H](CC(C)C)N(C)C(=O)C[C@@H](C(=O)N2CCCCC2)N(C)C(=O)[C@H](COCC(F)(F)F)N(C)C(=O)C2(CCCC2)NC(=O)[C@@H]2CCCN2C(=O)[C@H](CCc2ccc(C(F)(F)F)c(Cl)c2)NC(=O)CN(C)C(=O)[C@H](CC2CCCCC2)N(C)C(=O)CN(C)C(=O)CN(C)C1=O [Compound 208] ([NMeL]I[Sar][Sar][NMeCha][Sar][hPhe(3-Cl-4-CF3)]P[Ac5c][NMeS](Trifluoroethyl)[NMeD]-Piperidide; lactam N-11) | > 500
5 | CC[C@H](C)[C@@H]1NC(=O)[C@H](CC(C)C)N(C)C(=O)C[C@@H](C)NC(=O)[C@H](C(C)C)N(C)C(=O)C2(CCCC2)NC(=O)[C@@H]2CCCN2C(=O)[C@H](CCc2ccc(C(F)(F)F)c(Cl)c2)NC(=O)CN(C)C(=O)[C@H](CC2CCCCC2)N(C)C(=O)CN(C)C(=O)CN(CC)C1=O [Compound 210] (cyclo([Ac5c][NMeV][d(β3hA)][NMeL]I[NEtG][Sar][NMeCha][Sar][hPhe(3-Cl-4-CF3)]P)) | > 500
6 | CC[C@H](C)[C@@H]1NC(=O)[C@@H]2CCCCN2C(=O)C[C@@H](C)NC(=O)[C@H](CC(C)C)N(C)C(=O)C2(CCCC2)NC(=O)[C@H](CC(C)C)N(C)C(=O)[C@H](CCc2ccc(C(F)(F)F)c(Cl)c2)NC(=O)CN(C)C(=O)[C@H](CC2CCCCC2)N(C)C(=O)CN(C)C(=O)CN(C)C1=O [Compound 213] (cyclo([Ac5c][NMeL][d(β3hA)][Pip]I[Sar][Sar][NMeCha][Sar][hPhe(3-Cl-4-CF3)][NMeL])) | > 500
7 | CC[C@H](C)[C@@H]1NC(=O)[C@H](CC(C)C)N(C)C(=O)C[C@@H](C(=O)N(C)C)N(C)C(=O)[C@H](C(C)C)N(C)C(=O)C2(CCCC2)NC(=O)[C@H](CC(=O)N2CCC(F)(F)CC2)N(C)C(=O)[C@H](CCc2ccc(C(F)(F)F)c(Cl)c2)NC(=O)CN(C)C(=O)[C@H](CC2CCCCC2)N(C)C(=O)CN(C)C(=O)CN(C)C1=O [Compound 218] ([NMeL]I[Sar][Sar][NMeCha][Sar][hPhe(3-Cl-4-CF3)][NMeD](N(CH2CH2)2CF2)[Ac5c][NMeV][NMeD]-NMe2; lactam N-11) | > 500
8 | CC(C)C[C@H]1C(=O)N[C@@H](COC2CCC2)C(=O)N(C)CC(=O)N(C)CC(=O)N(C)[C@@H](CC2CCCCC2)C(=O)N(C)CC(=O)N[C@@H](CCc2ccc(C(F)(F)F)c(Cl)c2)C(=O)N2CCC[C@H]2C(=O)NC2(CCCC2)C(=O)N(C)[C@@H](C2CCCCC2)C(=O)N(C)[C@H](C(=O)N2CCCCC2)CC(=O)N1C [Compound 226] ([NMeL]S(Cyclobutyl)[Sar][Sar][NMeCha][Sar][hPhe(3-Cl-4-CF3)]P[Ac5c][NMeChg][NMeD]-Piperidide; lactam N-11) | > 500
9 | CC[C@H](C)[C@@H]1NC(=O)[C@H](CC2CCC2)N(C)C(=O)C[C@@H](C)NC(=O)[C@H](C(C)C)N(C)C(=O)C2(CCCC2)NC(=O)[C@@H]2CCCN2C(=O)[C@H](CCc2ccc(C(F)(F)F)c(Cl)c2)NC(=O)CN(C)C(=O)[C@H](CC2CCCCC2)N(C)C(=O)CN(C)C(=O)CN(C)C1=O [Compound 230] (cyclo([Ac5c][NMeV][d(β3hA)][NMeCba]I[Sar][Sar][NMeCha][Sar][hPhe(3-Cl-4-CF3)]P)) | > 500
